Data: publication PMC4382497, “Inverse Agonistic Action of 3-Iodothyronamine at the Human Trace Amine-Associated Receptor 5” (PLoS ONE, 2015)

Molecular target: T1, hTAAR5 (Homo sapiens, UniProt O14804)
T1 construct: gene TAAR5; full length; N-terminal HA tag (YPYDVPDYA) and first 21 residues of bovine rhodopsin (Rho-tag) kept; vector pcDps; transient in HEK293 cells
T1 sequence (O14804 1-337): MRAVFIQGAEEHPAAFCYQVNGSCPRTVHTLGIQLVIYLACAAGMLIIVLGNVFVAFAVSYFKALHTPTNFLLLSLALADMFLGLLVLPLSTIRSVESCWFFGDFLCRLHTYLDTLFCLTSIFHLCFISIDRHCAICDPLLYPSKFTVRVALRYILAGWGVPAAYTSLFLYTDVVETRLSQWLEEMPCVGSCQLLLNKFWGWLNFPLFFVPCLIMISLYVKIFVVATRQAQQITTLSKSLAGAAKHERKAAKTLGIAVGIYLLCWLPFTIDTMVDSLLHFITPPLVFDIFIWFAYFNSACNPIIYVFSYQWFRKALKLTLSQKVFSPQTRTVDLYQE
Assay: NFAT-RE luciferase reporter (IP3-luc), HEK293
Assay type: cell-based
Conditions: inverse agonist; reduction of basal Gq/11 (IP3) signaling; 6 h, 37 °C; 1 nM to 100 μM

## NCCc1ccc(Oc2ccc(O)cc2)c(I)c1 [3-T1AM]
  EC50: 4.4 ± 0.9 µM
